In US8034827B2, “Phenanthridine derivatives as bradykinin antagonists” (Richter Gegeon Nyrt., priority 2005, dated 2011):
Where a name gives a salt, the structure may show the parent alone.

Key:
[1] = target: T1, human recombinant bradykinin1 receptors (Homo sapiens, UniProt P46663); test: Human recombinant bradykinin B1 receptor binding; details: CHO cell membranes, [3H]-[Des-Arg10] Kallidin radioligand
T1 construct: host or cells: CHO cells
T1 sequence (P46663 1-353): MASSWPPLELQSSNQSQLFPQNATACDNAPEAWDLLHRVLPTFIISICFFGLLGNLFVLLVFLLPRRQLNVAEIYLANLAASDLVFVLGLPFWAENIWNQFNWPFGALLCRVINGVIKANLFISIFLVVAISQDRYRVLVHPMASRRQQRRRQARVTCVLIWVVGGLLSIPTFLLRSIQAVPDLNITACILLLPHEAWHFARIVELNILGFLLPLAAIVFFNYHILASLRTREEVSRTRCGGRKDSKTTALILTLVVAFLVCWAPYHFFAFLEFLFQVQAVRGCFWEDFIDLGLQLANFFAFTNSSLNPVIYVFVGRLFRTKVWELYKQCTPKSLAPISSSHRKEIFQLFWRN
Method: Receptor Binding Assays 1. Human Recombinant Bradykinin B1 Receptor Binding
Binding assays were carried out on human recombinant bradykinin1 receptors (expressed in CHO cells) according to the Euroscreen Technical Data Sheet (Cat. No.: ES-091). 20 μg protein/tube was incubated with [3,4-prolyl-3,4-^3H(N)]-[Des-Arg^10] Kallidin as radioligand. Non specific binding was determined in the presence of 10 μM Lys-des-Arg^9-Bradykinin. The final incubation volume was 250 μl. Samples were incubated for 15 min. at 25° C. then were rapidly vacuum filtered through GF/B filters presoaked for at least 1 h in 0.5% PEI. Radioactivity was determined by liquid scintillation spectroscopy.

[2] = target: T2, recombinant human B1 receptors (Homo sapiens, UniProt P46663); test: Antagonist potency by measurement of cytosolic calcium ion concentration in CHO-B1 cells (agonist LysDABK); format: cell-based; details: inhibition of LysDABK (EC80)-evoked [Ca2+]i elevation, fluo-4, read-out: B1 func.
T2 construct: host or cells: CHO (CHO-B1)
T2 sequence (P46663 1-353): T1 sequence (P46663 1-353)
Method: Assessment of Antagonist Potency at B1 and B2 Receptors In Vitro by Measurement of Cytosolic Calcium Ion Concentration with a Plate Reader Fluorimeter in Cells Expressing Recombinant Human B1 or B2 Receptors
Chinese hamster ovary (CHO) cells stably expressing recombinant human B1 (CHO-B1, Euroscreen) or B2 (CHO-B2, Perkin-Elmer) receptors were cultured in Dulbecco's Modified Eagle's Medium (DMEM) containing 10% Fetal Calf Serum (FCS), 100 U/ml penicillin, 0.1 mg/ml streptomycin, 0.25 μg/ml amphotericin B, 1% Minimum Essential Medium Eagle (MEM), non essential amino acid solution, 600 μg/ml G418, 1% pyruvate (for the B2 cell line). Cells were kept at 37° C. in a humidified incubator in an atmosphere of 5% CO2/95% air and were passaged 1:4 three times a week. Cells were plated at 1.5-2.5×10^4 cell/well on standard 96-well microplates, measurements of cytosolic calcium ion concentration ([Ca^2+]i) were carried out 1-2 days after cell plating.
Measurements of [Ca^2+]i were carried out on CHO-B1 and CHO-B2 cells stably expressing human B1 and B2 receptors, respectively. Cells were grown in standard 96-well microplates and before the measurement were loaded with a fluorescent Ca^2+-sensitive dye, fluo-4/AM (2 μM): after removing the culture medium the dye was added to the cells (dissolved in assay buffer: 145 mM NaCl, 5 mM KCl, 2 mM MgCl2, 2 mM CaCl2, 10 mM HEPES, 20 mM D-glucose, 2 mM probenecid, 100 μl/well) and cells were incubated at 37° C. in a humidified incubator in an atmosphere of 5% CO2/95% air for 40-120 min. To stop dye loading cells were washed twice with assay buffer. After washing, various concentrations of the test compounds (diluted in extracellular medium from a DMSO stock solution, final DMSO concentration was <0.1%) or buffer were added to each well depending on the experimental setup. After incubation at 37° C. for 20-25 min. baseline and agonist-evoked changes of [Ca^2+]i were measured column by column with a plate reader fluorimeter (Fluoroskan Ascent, Labsystems). Excitation and detection of emission was carried out from the bottom of the plate. Filters used for Fluo-4: excitation filter −485 nm, emission filter −538 nm. The whole measurement process was performed at 37° C. and was controlled by custom software. Inhibitory potency of the test compounds was assessed by measuring the reduction in the agonist-evoked [Ca^2+]i-elevation in the presence of different concentrations of the compounds. The agonists were LysDABK for CHO-B1, and bradykinin for CHO-B2 cells. Agonists were applied at an EC80 concentration, the EC80-values were derived from daily determined dose-response curves. Fluorescence data were expressed as ΔF/F (fluorescence change normalized to baseline). All treatments on a single plate were measured in multiple wells. Data from all wells with the same treatment were averaged and the average values were used for analysis. Inhibitory potency of a compound at a single concentration point was expressed as percent inhibition of the control agonist response. Sigmoidal concentration-inhibition curves were fitted to the data (derived from at least three independent experiments) and IC50-values were determined as the concentration that produces half of the maximal inhibition caused by the compound.

Ki [1] [nM] | IC50 [2] [nM] | SMILES
< 100 | < 100 | O=C(CC1c2cc(F)ccc2-c2ccccc2N1S(=O)(=O)c1ccc(Cl)c(Cl)c1)NCCc1ccc(C2=NCCN2)cc1 (centres unmarked) [Example 1, 2-[5-(3,4-Dichloro-benzenesulfonyl)-8-fluoro-5,6-dihydro-phenanthridin-6-yl]-N-{2-[4-(4,5-dihydro-1H-imidazol-2-yl)-phenyl]-ethyl}-acetamide hydrochloride]
< 100 | < 100 | COc1ccc(S(=O)(=O)N2c3ccccc3-c3ccccc3C2CC(=O)NCCc2ccc(C3=NCCN3)cc2)cc1 (centres unmarked) [Example 16, N-{2-[4-(4,5-Dihydro-1H-imidazol-2-yl)-phenyl]-ethyl}-2-[5-(4-methoxy-benzenesulfonyl)-5,6-dihydro-phenanthridin-6-yl]-acetamide hydrochloride]
< 100 | < 100 | Cc1ccc(S(=O)(=O)N2c3ccccc3-c3ccccc3C2CC(=O)NCCc2ccc(C3=NCCN3)cc2)cc1 (centres unmarked) [Example 14, N-{2-[4-(4,5-Dihydro-1H-imidazol-2-yl)-phenyl]-ethyl}-2-[5-(toluene-4-sulfonyl)-5,6-dihydro-phenanthridin-6-yl]-acetamide hydrochloride]
< 100 | 100 to 500 | O=C(CC1c2ccccc2-c2ccccc2N1S(=O)(=O)c1ccc(Cl)c(Cl)c1)Nc1ccc(N2CCC(N3CCCCC3)CC2)cc1 (centres unmarked) [Example 8, N-(4-[1,4′]Bipiperidinyl-1-yl-phenyl)-2-[5-(3,4-dichloro-benzenesulfonyl)-5,6-dihydro-phenanthridin-6-yl]-acetamide]
< 100 | < 100 | O=C(CC1c2cc(F)cc(F)c2-c2ccccc2N1S(=O)(=O)c1ccc(Cl)c(Cl)c1)NCCc1ccc(C2=NCCN2)cc1 (centres unmarked) [Example 18, 2-[5-(3,4-Dichloro-benzenesulfonyl)-8,10-difluoro-5,6-dihydro-phenanthridin-6-yl]-N-{2-[4-(4,5-dihydro-1H-imidazol-2-yl)-phenyl]-ethyl}-acetamide hydrochloride]
< 100 | < 100 | Cc1cc(C)c(S(=O)(=O)N2c3ccccc3-c3ccccc3C2CC(=O)NCCc2ccc(C3=NCCN3)cc2)c(C)c1 (centres unmarked) [Example 15, N-{2-[4-(4,5-Dihydro-1H-imidazol-2-yl)-phenyl]-ethyl}-2-[5-(2,4,6-trimethyl-benzenesulfonyl)-5,6-dihydro-phenanthridin-6-yl]-acetamide hydrochloride]
< 100 | < 100 | O=C(CC1c2ccccc2-c2ccccc2N1S(=O)(=O)c1ccc(Cl)c(Cl)c1)NCCN1CCN(c2ccncc2)CC1 (centres unmarked) [Example 3]
< 100 | 100 to 500 | CC(C)N1CCN(C(=O)C2CCN(S(=O)(=O)c3ccc(NCC(c4ccccc4)c4ccccc4)c(C(=O)N4CCOCC4)c3)CC2)CC1 [Example 70002460, 4-{2-[(2,2-diphenyl-ethyl)-amino]-5-{[4-/(4-<1-methyl-ethyl>-1-piperazinyl)-carbonyl/-1-piperidinyl]-sulfonyl}-benzoyl}-morpholine, reference compound]
< 100 | < 100 | O=C(CC1c2ccccc2-c2ccccc2N1S(=O)(=O)c1ccc(Cl)c(Cl)c1)N1CCC(Cc2ccc(C3=NCCN3)cc2)CC1 (centres unmarked) [Example 5, 2-[5-(3,4-Dichloro-benzenesulfonyl)-5,6-dihydro-phenanthridin-6-yl]-1-{4-[4-(4,5-dihydro-1H-imidazol-2-yl)-benzyl]-piperidin-1-yl}-ethanone]

SMILES | Ki [1] [nM] | IC50 [2] [nM]
CCCN1C(=O)C(NC(=O)Nc2ccc(N3CCC(N4CCCCC4)CC3)cc2)N=C(c2ccc(C)cc2)c2ccccc21 (racemic) [Example 70004387, (±)-N-[4-(1,4′-bipiperidin)-1′-yl-phenyl]-N′-[2,3-dihydro-5-(4-methyl-phenyl)-2-oxo-1-propyl-1H-1,4-benzodiazepin-3-yl]-urea, reference compound] | < 100 | 100 to 500
